Experimental data reported in PubChem BioAssay AID1963851 (Molecular Pharmacology Branch, DTP, NCI, 2024).

Test system: 188146-221-R-J1-PDC complex spheroid viability
Experiment: Anticancer human tumor 188146-221-R-J1-PDC patient-derived colon adenocarcinoma cell line growth inhibition [POLQ]
Settings: for IC50: curve of first compound; for viability, T/C: stronger effect = lower value
Outline: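 Growth inhibition in 3D: complex spheroids (tumor PDC, HUVEC, MSC) treated with POLQ inhibitor combinations; where Cmax unknown, highest tested concentration 10 microM, except SN-38 at 1 microM.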

[1] = second compound 0.0316 µM, first compound 0.0316 µM
[2] = second compound 0.0316 µM, first compound 0.1 µM
[3] = second compound 0.0316 µM, first compound 0.316 µM
[4] = second compound 0.0316 µM, first compound 1 µM
[5] = second compound 0.1 µM, first compound 0.0316 µM
[6] = second compound 0.1 µM, first compound 0.1 µM
[7] = second compound 0.1 µM, first compound 0.316 µM
[8] = second compound 0.1 µM, first compound 1 µM
[9] = second compound 0.316 µM, first compound 0.0316 µM
[10] = second compound 0.316 µM, first compound 0.1 µM
[11] = second compound 0.316 µM, first compound 0.316 µM
[12] = second compound 0.316 µM, first compound 1 µM
[13] = second compound 1 µM, first compound 0.0316 µM
[14] = second compound 1 µM, first compound 0.1 µM
[15] = second compound 1 µM, first compound 0.316 µM
[16] = second compound 1 µM, first compound 1 µM
[17] = second compound 3.16 µM, first compound 0.0316 µM
[18] = second compound 3.16 µM, first compound 0.1 µM
[19] = second compound 3.16 µM, first compound 0.316 µM
[20] = second compound 3.16 µM, first compound 1 µM
[21] = second compound 10 µM, first compound 0.0316 µM
[22] = second compound 10 µM, first compound 0.1 µM
[23] = second compound 10 µM, first compound 0.316 µM
[24] = second compound 10 µM, first compound 1 µM
[25] = second compound 0.0316 µM, first compound 3.16 µM
[26] = second compound 0.0316 µM, first compound 10 µM
[27] = second compound 0.1 µM, first compound 3.16 µM
[28] = second compound 0.1 µM, first compound 10 µM
[29] = second compound 0.316 µM, first compound 3.16 µM
[30] = second compound 0.316 µM, first compound 10 µM
[31] = second compound 1 µM, first compound 3.16 µM
[32] = second compound 1 µM, first compound 10 µM
[33] = second compound 3.16 µM, first compound 3.16 µM
[34] = second compound 3.16 µM, first compound 10 µM
[35] = second compound 10 µM, first compound 3.16 µM
[36] = second compound 10 µM, first compound 10 µM
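Also: spheroids exposed to compounds for seven days.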
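For viability, T/C in this document: 100% = DMSO vehicle control viability.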

## C=CCn1c(=O)c2cnc(Nc3ccc(N4CCN(C)CC4)cc3)nc2n1-c1cccc(C(C)(C)O)n1 + Nc1ccc(C#CCN(C(=O)Cc2ncc(C(F)(F)F)cc2C(F)(F)F)c2ccc(F)cc2)nn1
Second compound 0.0316 µM
  IC50: > 1000 nM
Second compound 0.1 µM
  IC50: > 1000 nM
Second compound 0.316 µM
  IC50: > 1000 nM
Second compound 1 µM
  IC50: > 1000 nM
Second compound 3.16 µM
  IC50: > 1000 nM
Second compound 10 µM
  IC50: 788 nM
Second compound 0.0316 µM, first compound 0.00316 µM
  viability, T/C: 112%
Second compound 0.0316 µM, first compound 0.01 µM
  viability, T/C: 100%
[1]
  viability, T/C: 98.6%
[2]
  viability, T/C: 100%
[3]
  viability, T/C: 102%
[4]
  viability, T/C: 55.6%
Second compound 0.1 µM, first compound 0.00316 µM
  viability, T/C: 111%
Second compound 0.1 µM, first compound 0.01 µM
  viability, T/C: 97%
[5]
  viability, T/C: 119%
[6]
  viability, T/C: 117%
[7]
  viability, T/C: 109%
[8]
  viability, T/C: 57.1%
Second compound 0.316 µM, first compound 0.00316 µM
  viability, T/C: 115%
Second compound 0.316 µM, first compound 0.01 µM
  viability, T/C: 104%
[9]
  viability, T/C: 115%
[10]
  viability, T/C: 111%
[11]
  viability, T/C: 84.6%
[12]
  viability, T/C: 50.6%
Second compound 1 µM, first compound 0.00316 µM
  viability, T/C: 119%
Second compound 1 µM, first compound 0.01 µM
  viability, T/C: 106%
[13]
  viability, T/C: 100%
[14]
  viability, T/C: 122%
[15]
  viability, T/C: 101%
[16]
  viability, T/C: 55.9%
Second compound 3.16 µM, first compound 0.00316 µM
  viability, T/C: 107%
Second compound 3.16 µM, first compound 0.01 µM
  viability, T/C: 110%
[17]
  viability, T/C: 114%
[18]
  viability, T/C: 110%
[19]
  viability, T/C: 108%
[20]
  viability, T/C: 52.1%
Second compound 10 µM, first compound 0.00316 µM
  viability, T/C: 114%
Second compound 10 µM, first compound 0.01 µM
  viability, T/C: 114%
[21]
  viability, T/C: 104%
[22]
  viability, T/C: 110%
[23]
  viability, T/C: 98.4%
[24]
  viability, T/C: 37.2%

## CC1COCCN1c1cc(-c2ccnn2C)c2ccnc(-c3ccn[nH]3)c2n1 (stereo unspecified) + Nc1ccc(C#CCN(C(=O)Cc2ncc(C(F)(F)F)cc2C(F)(F)F)c2ccc(F)cc2)nn1
Second compound 0.0316 µM
  IC50: 177 nM
Second compound 0.1 µM
  IC50: 228 nM
Second compound 0.316 µM
  IC50: 173 nM
Second compound 1 µM
  IC50: 142 nM
Second compound 3.16 µM
  IC50: 162 nM
Second compound 10 µM
  IC50: 176 nM
[1]
  viability, T/C: 84.9%
[2]
  viability, T/C: 63.2%
[3]
  viability, T/C: 36.3%
[4]
  viability, T/C: 22.6%
[25]
  viability, T/C: 16.3%
[26]
  viability, T/C: 14.5%
[5]
  viability, T/C: 86.4%
[6]
  viability, T/C: 72.8%
[7]
  viability, T/C: 40.3%
[8]
  viability, T/C: 22.3%
[27]
  viability, T/C: 17.2%
[28]
  viability, T/C: 12.9%
[9]
  viability, T/C: 80%
[10]
  viability, T/C: 61.1%
[11]
  viability, T/C: 38.3%
[12]
  viability, T/C: 20%
[29]
  viability, T/C: 14.1%
[30]
  viability, T/C: 15.8%
[13]
  viability, T/C: 96.3%
[14]
  viability, T/C: 54%
[15]
  viability, T/C: 40.2%
[16]
  viability, T/C: 19.2%
[31]
  viability, T/C: 16.2%
[32]
  viability, T/C: 15%
[17]
  viability, T/C: 89.7%
[18]
  viability, T/C: 56.7%
[19]
  viability, T/C: 42.6%
[20]
  viability, T/C: 19.6%
[33]
  viability, T/C: 17.4%
[34]
  viability, T/C: 14.2%
[21]
  viability, T/C: 77.3%
[22]
  viability, T/C: 66.1%
[23]
  viability, T/C: 33.2%
[24]
  viability, T/C: 19.8%
[35]
  viability, T/C: 18.6%
[36]
  viability, T/C: 14.7%

## CC1COCCN1c1cc(C2(S(C)(=N)=O)CC2)nc(-c2ccnc3[nH]ccc23)n1 (stereo unspecified) + Nc1ccc(C#CCN(C(=O)Cc2ncc(C(F)(F)F)cc2C(F)(F)F)c2ccc(F)cc2)nn1
Second compound 0.0316 µM
  IC50: 4630 nM
Second compound 0.1 µM
  IC50: 4500 nM
Second compound 0.316 µM
  IC50: 4590 nM
Second compound 1 µM
  IC50: 4550 nM
Second compound 3.16 µM
  IC50: 4660 nM
Second compound 10 µM
  IC50: 4110 nM
[1]
  viability, T/C: 105%
[2]
  viability, T/C: 110%
[3]
  viability, T/C: 95.7%
[4]
  viability, T/C: 100%
[25]
  viability, T/C: 61.2%
[26]
  viability, T/C: 27.2%
[5]
  viability, T/C: 106%
[6]
  viability, T/C: 92.6%
[7]
  viability, T/C: 109%
[8]
  viability, T/C: 92.1%
[27]
  viability, T/C: 60.5%
[28]
  viability, T/C: 26.9%
[9]
  viability, T/C: 110%
[10]
  viability, T/C: 109%
[11]
  viability, T/C: 99.7%
[12]
  viability, T/C: 101%
[29]
  viability, T/C: 61.9%
[30]
  viability, T/C: 24.8%
[13]
  viability, T/C: 95.1%
[14]
  viability, T/C: 89.7%
[15]
  viability, T/C: 111%
[16]
  viability, T/C: 89.2%
[31]
  viability, T/C: 63.3%
[32]
  viability, T/C: 22.2%
[17]
  viability, T/C: 103%
[18]
  viability, T/C: 109%
[19]
  viability, T/C: 93.3%
[20]
  viability, T/C: 82.7%
[33]
  viability, T/C: 65.3%
[34]
  viability, T/C: 24.1%
[21]
  viability, T/C: 107%
[22]
  viability, T/C: 99.6%
[23]
  viability, T/C: 101%
[24]
  viability, T/C: 90%
[35]
  viability, T/C: 58.1%
[36]
  viability, T/C: 22.1%
